# Values joined by “and” are separate entries in the source; they are usually repeats but may differ in a detail not shown here. Equal entries are not always repeated.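 Following 48 hours of exposure in 96-well plates, responses at five concentrations were used to interpolate endpoints linearly. Here, GI50 denotes the concentration required for 50% inhibition of growth. TGI: concentration producing complete growth inhibition.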
# Experiments:
# Assay in all cases: NCI-60 cell line screen, 48 h
# [1] = test system: M19-MEL melanoma
# [2] = test system: RXF-631 renal
# [3] = test system: DMS 273 small cell lung
# [4] = test system: DU-145 prostate
# [5] = test system: MDA-N
# [6] = test system: NCI/ADR-RES ovarian
# [7] = test system: MCF7 breast
# [8] = test system: MDA-MB-231 breast
# [9] = test system: MDA-MB-435
Structure (SMILES),TGI [1] [µM],TGI [2] [µM],TGI [3] [µM],further results
Cc1ccc(SSCCCS(=O)O)cc1,> 100,> 100,79,
CC1=C(C(=O)Nc2cccc(C(F)(F)F)c2)C(c2ccc(O)cc2)C(C(=O)Nc2cccc(C(F)(F)F)c2)=C(C)N1,40.3,41.6,,
Cc1ccc2nc3c(Cl)cc(=O)cc-3sc2c1,36,> 100,39.3,
CCCCCCCCCCCCCCCCOC(=O)C(C(=O)OCCCCCCCCCCCCCCCC)[N+](C)(C)CCOC(C)=O,30.4,30.5,25,
CCSC1(SCC)CCN(C=NC(C)(C)C)C1,> 100,> 100,> 100,
CC1=C(N2CC2)C(=O)C(CO)=C(N2CC2)C1=O,,,,TGI [4]: 1.3 µM; GI50 [5]: 0.0284 µM and 0.0259 µM; TGI [5]: 0.138 µM and 0.106 µM; GI50 [6]: 0.0161 µM; TGI [6]: 0.0671 µM and 0.0182 µM; GI50 [7]: 0.00487 µM; TGI [7]: 0.0938 µM and 0.0967 µM; GI50 [8]: 0.14 µM; GI50 [9]: 0.0386 µM and 0.0393 µM; TGI [9]: 0.169 µM and 0.151 µM
CC(C)(O)[C@@H]1CCC(C)([C@H]2[C@@H](O)CC3(C)C4CC(OC5OC(CO)C(O)C(O)C5O)C5C(C)(C)[C@@H](OC6OCC(O)C(O)C6O)CC[C@@]56C[C@@]46CC[C@]23C)O1 (stereo partly specified),> 100,,> 100,
CC(=O)OC1C=CC2CCN3C(=O)c4cc5c(cc4[C@H]1C23)OCO5 (stereo partly specified),> 100,,> 100,
Nc1nc(-c2ccccc2)c(-c2ccccc2)c(-c2nc(N)nc(-c3ccccc3)c2-c2ccccc2)n1,,,,TGI [4]: > 100 µM; TGI [5]: > 100 µM; TGI [6]: > 100 µM; TGI [7]: > 100 µM; TGI [8]: > 100 µM; TGI [9]: > 100 µM
COc1ccc(/C=C2\N=C(c3ccccc3)OC2=O)c(OCc2ccccc2)c1,> 100,,> 100,
O=[N+]([O-])c1cccc(C2SCc3nc4ccccc4n32)c1 (stereo unspecified),> 100,,> 100,
C=C1C(=O)OC2CCCCC3OC3C12 (stereo unspecified),35.1,19.2,23.8,
Cc1cc2c3ccccc3n(C)c2c2c1C(=O)c1ccccc1C2=O,10.3,98.5,50.1,
O=C(CC(=O)N1N=C(n2ccc3ccccc32)CC1c1ccccc1)Nc1cccc(Cl)c1 (stereo unspecified),> 100,> 100,> 100,
CC1C2Cc3ccc(O)cc3C1(C)CCN2C (stereo unspecified),,,,TGI [4]: > 100 µM; TGI [5]: > 100 µM; TGI [6]: > 100 µM; TGI [7]: > 100 µM; TGI [8]: > 100 µM; TGI [9]: > 100 µM
O=C1C=C2S[C@H]3C[C@]2(C=C1Br)c1c(c(O)c2c4c1=NCCC=4C=N2)N3,,,2.39,TGI [4]: 4.09 µM; TGI [5]: 0.314 µM; TGI [6]: 0.457 µM; TGI [8]: 1.16 µM; TGI [9]: 0.305 µM
C/C=C/C=N/N(c1nnc(-c2ccccc2)c(-c2ccccc2)n1)S(=O)(=O)c1ccc(C)cc1,36.3,73.2,29.8,
CN(C)c1cccc(-c2cc(=O)c3ccccc3[nH]2)c1,> 100,,> 100,
OC1CN(OC/C=C/c2ccccc2)CC(O)C1O (stereo unspecified),> 100,,> 100,
Cc1cc(C)nc(NS(=O)(=O)c2ccc(Nc3c4ccccc4nc4c(C(=O)NCCN(C)C)ccc(Cl)c34)cc2)n1,7.84,,,
COc1c(OC(C)=O)cc2c(OC(C)=O)c1CC(C)CC(OC)C(O)C(C)/C=C(\C)C(OC(N)=O)C(OC)/C=C\C=C(/C)C(=O)N2 (stereo unspecified),> 100,> 100,> 100,
CCOP(=O)(CCP(=O)(OCC)OCC)OCC.C[CH2][Sn]([Cl])([Cl])[CH2]C,> 60.4,,> 100,GI50 [1]: 24.8 µM; GI50 [4]: > 100 µM; TGI [4]: > 100 µM; GI50 [5]: > 100 µM; TGI [5]: > 100 µM; GI50 [6]: > 100 µM; TGI [6]: > 100 µM; GI50 [3]: > 75.1 µM; GI50 [7]: 21.6 µM; TGI [7]: 44.4 µM; GI50 [8]: 25 µM; TGI [8]: 92.2 µM; GI50 [9]: > 100 µM; TGI [9]: > 100 µM

# From PubChem BioAssay (NCI)
